From ChEMBL document CHEMBL5230136, “A review: Biologically active 3,4-heterocycle-fused coumarins” (Eur J Med Chem, 2021)
pEC50, pIC50, pKi: −log10 of the molar value. Converted amounts (≈) assume the structure as drawn. Values belong to the compound of their own block, whether it stands above or below them.

Assays:
MCF7 = assay: Cytotoxicity activity against human MCF7 cells assessed as decreased cell viability; assay type: functional, cell-based
[1] = molecular target: Dopamine receptors; D2 & D4 (Homo sapiens, UniProt P14416+P21917); assay: Binding affinity to human D2/D4 receptor assessed as inhibition constant; assay type: protein assay
D(4) dopamine receptor = D(4) dopamine receptor (Homo sapiens, UniProt P21917); assay: Binding affinity to D4 receptor (unknown origin) assessed as inhibition constant
Chain of D(4) dopamine receptor (P21917 whole entry): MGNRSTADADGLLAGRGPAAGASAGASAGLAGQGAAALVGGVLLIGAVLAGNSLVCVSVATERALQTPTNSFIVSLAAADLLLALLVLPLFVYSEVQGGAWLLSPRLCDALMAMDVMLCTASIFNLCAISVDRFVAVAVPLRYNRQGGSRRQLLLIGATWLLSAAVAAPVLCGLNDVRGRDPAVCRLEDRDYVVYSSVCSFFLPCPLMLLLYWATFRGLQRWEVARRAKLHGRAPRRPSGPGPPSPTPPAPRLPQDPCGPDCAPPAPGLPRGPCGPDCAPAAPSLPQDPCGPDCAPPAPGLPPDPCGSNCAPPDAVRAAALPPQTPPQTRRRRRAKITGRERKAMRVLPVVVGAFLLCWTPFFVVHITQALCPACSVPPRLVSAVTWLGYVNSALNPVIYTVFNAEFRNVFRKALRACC

Ehrlich = assay: cells; conditions: Mus musculus
Description: Anticancer activity against mouse EAC cells assessed as reduction in cell viability

Rattus norvegicus = organism: Rattus norvegicus; assay: Antifibrotic activity in Sprague-Dawley rat model of BDL induced hepatic fibrosis assessed as […] fibrotic potential; assay type: functional
HCT-15 = assay: Anticancer activity against human HCT-15 cells assessed as cell growth inhibition; assay type: functional, cell-based
Botrytis cinerea [2] = assay: Antifungal activity against Botrytis cinerea assessed as inhibition of fungal growth incubated for 24 hrs by standard broth dilution assay; assay type: functional, organism-based
Colletotrichum camelliae = assay: Antifungal activity against Colletotrichum camelliae; assay type: functional, organism-based
Botrytis cinerea [3] = assay: Antifungal activity against Botrytis cinerea; assay type: functional, organism-based
Raji = assay: Antiproliferative activity against human Raji cells assessed as reduction in cell growth incubated for 72 hrs by MTT assay; assay type: functional, cell-based
Staphylococcus aureus [4] = assay: Antibacterial activity against Staphylococcus aureus assessed as zone of inhibition at 20 mg/ml; assay type: functional; conditions: read-out: IZ
Geotrichum candidum [5] = assay: Antifungal activity against Geotrichum candidum assessed as zone of inhibition at 20 mg/ml; assay type: functional; conditions: read-out: IZ
Escherichia coli [6] = assay: Antibacterial activity against Escherichia coli assessed as zone of inhibition at 20 mg/ml; assay type: functional; conditions: read-out: IZ
Bacillus cereus = assay: Antibacterial activity against Bacillus cereus assessed as zone of inhibition at 20 mg/ml; assay type: functional; conditions: read-out: IZ
Geotrichum candidum [7] = assay: Antimicrobial activity against Geotrichum candidum assessed as zone of inhibition at 50 uM; assay type: functional; conditions: read-out: IZ
Pseudomonas aeruginosa = assay: Antibacterial activity against Pseudomonas aeruginosa assessed as zone of inhibition at 20 mg/ml; assay type: functional; conditions: read-out: IZ
Candida albicans [8] = assay: Antifungal activity against Candida albicans assessed as zone of inhibition at 20 mg/ml; assay type: functional; conditions: read-out: IZ
Serratia marcescens = assay: Antibacterial activity against Serratia marcescens assessed as zone of inhibition at 20 mg/ml; assay type: functional; conditions: read-out: IZ
Trichophyton rubrum = assay: Antifungal activity against Trichophyton rubrum assessed as zone of inhibition at 20 mg/ml; assay type: functional; conditions: read-out: IZ
Aspergillus flavus = assay: Antifungal activity against Aspergillus flavus assessed as zone of inhibition at 20 mg/ml; assay type: functional; conditions: read-out: IZ
Fusarium oxysporum [9] = assay: Antifungal activity against Fusarium oxysporum assessed as zone of inhibition at 20 mg/ml; assay type: functional; conditions: read-out: IZ
Micrococcus luteus = assay: Antibacterial activity against Micrococcus luteus assessed as zone of inhibition at 20 mg/ml; assay type: functional; conditions: read-out: IZ
Scopulariopsis = assay: Antifungal activity against Scopulariopsis assessed as zone of inhibition at 20 mg/ml; assay type: functional; conditions: read-out: IZ
Bacillus subtilis = assay: Antibacterial activity against Bacillus subtilis assessed as reduction in bacterial growth; assay type: functional
Staphylococcus aureus [10] = assay: Antibacterial activity against Staphylococcus aureus ATCC 29213 assessed as reduction in bacterial growth; assay type: functional
Escherichia coli [11] = assay: Antibacterial activity against Escherichia coli assessed as bacterial growth inhibition; assay type: functional
[12] = tested on: Staphylococcus epidermidis; assay: Antibacterial activity against Staphylococcus epidermidis assessed as reduction in bacterial growth; assay type: functional
Fusarium oxysporum [13] = assay: Antifungal activity against Fusarium oxysporum assessed as zone of inhibition at 50 uM; assay type: functional; conditions: read-out: IZ
Candida albicans [14] = assay: Antifungal activity against Candida albicans assessed as reduction in fungal growth; assay type: functional
A549 = assay: Anticancer activity against human A549 cells assessed as inhibition of cell proliferation measured after 48 hrs by MTT assay; assay type: functional, cell-based; conditions: A549, 48 h
Candida albicans [15] = assay: […] activity against Candida albicans assessed as zone of inhibition at 20 mg/ml; assay type: functional; conditions: read-out: IZ
Staphylococcus aureus [16] = assay: Antibacterial activity against Staphylococcus aureus by dilution assay; assay type: functional
Staphylococcus simulans = assay: Antibacterial activity against Staphylococcus simulans assessed as zone of inhibition at 20 mg/ml; assay type: functional; conditions: read-out: IZ

SMILES: Cc1ccc2nc3c(c(-c4ccccc4)c2c1)c(=O)oc1ccccc13
pIC50 (MCF7): 7.30

Ki [1]: 78 nM | pKi (D(4) dopamine receptor): 8.82
SMILES: COc1ccc2c3c(c(=O)oc2c1)CN(Cc1ccncc1)CC3

pIC50 (Ehrlich): 3.61
SMILES: CCc1ccccc1-n1c(N)c(C#N)c2c(c(=O)oc3ccc4ccccc4c32)c1=O
Activity (Rattus norvegicus): 193.07 µmol/L

pIC50 (HCT-15): 5.10
SMILES: CC(=O)/C=C1\c2c(c3ccccc3oc2=O)OC1(c1ccccc1)N(C)C (stereo unspecified)

EC50 (Colletotrichum camelliae): 6.02 µg/mL (≈ 22.1 µM) | EC50 (Botrytis cinerea [3]): 1.72 µg/mL (≈ 6.32 µM)
SMILES: Cc1oc2c(c1C)c(=O)oc1cc(OC(C)C)ccc12
pEC50 (Botrytis cinerea [2]): 5.76

SMILES: COc1cccc(C2C3=C(CCCC3=O)Oc3c2c(=O)oc2ccccc32)c1 (stereo unspecified)
pIC50 (Raji): 4.14

SMILES: CCOC(=O)c1sc2c(c1NC(=O)CNc1ccc(S(N)(=O)=O)cc1)c(=O)oc1ccccc12
zone of inhibition at 20000 µg/mL (Staphylococcus aureus [4]): 9 mm | zone of inhibition at 20000 µg/mL (Geotrichum candidum [5]): 10 mm | zone of inhibition at 20000 µg/mL (Escherichia coli [6]): 9 mm | zone of inhibition at 20000 µg/mL (Bacillus cereus): 0 mm | zone of inhibition at 50 µM (Geotrichum candidum [7]): 10 mm | zone of inhibition at 20000 µg/mL (Pseudomonas aeruginosa): 0 mm | zone of inhibition at 20000 µg/mL (Candida albicans [8]): 0 mm | zone of inhibition at 20000 µg/mL (Serratia marcescens): 0 mm | zone of inhibition at 20000 µg/mL (Trichophyton rubrum): 0 mm | zone of inhibition at 20000 µg/mL (Aspergillus flavus): 0 mm | zone of inhibition at 20000 µg/mL (Fusarium oxysporum [9]): 0 mm | zone of inhibition at 20000 µg/mL (Micrococcus luteus): 0 mm | zone of inhibition at 20000 µg/mL (Scopulariopsis): 0 mm

MIC (Bacillus subtilis): 6.3 µM (≈ 2.61 µg/mL) | MIC (Staphylococcus aureus [10]): 25 µM (≈ 10.4 µg/mL) | MIC (Escherichia coli [11]): 6.3 µM (≈ 2.61 µg/mL) | MIC [12]: 6.3 µM (≈ 2.61 µg/mL)
SMILES: CC1=Nc2[nH]n(-c3ccccc3)c(=O)c2C2c3cc(Cl)cc(Cl)c3OC(=O)C12 (stereo unspecified)

SMILES: CCOC(=O)c1sc2c(c1N)c(=O)oc1ccccc12
zone of inhibition at 20000 µg/mL (Staphylococcus aureus [4]): 9 mm | zone of inhibition at 20000 µg/mL (Geotrichum candidum [5]): 0 mm | zone of inhibition at 20000 µg/mL (Escherichia coli [6]): 0 mm | zone of inhibition at 50 µM (Fusarium oxysporum [13]): 16 mm | zone of inhibition at 20000 µg/mL (Bacillus cereus): 0 mm | zone of inhibition at 20000 µg/mL (Pseudomonas aeruginosa): 10 mm | zone of inhibition at 20000 µg/mL (Candida albicans [8]): 13 mm | zone of inhibition at 20000 µg/mL (Serratia marcescens): 8 mm | zone of inhibition at 20000 µg/mL (Trichophyton rubrum): 0 mm | zone of inhibition at 20000 µg/mL (Aspergillus flavus): 0 mm | zone of inhibition at 20000 µg/mL (Fusarium oxysporum [9]): 0 mm | zone of inhibition at 20000 µg/mL (Micrococcus luteus): 8 mm | zone of inhibition at 20000 µg/mL (Scopulariopsis): 8 mm

MIC (Candida albicans [14]): 1000 µg/mL (≈ 2590 µM)
SMILES: COc1cccc2cc(-c3ccc4c(=O)oc5c(C)cccc5c4n3)c(=O)oc12

pIC50 (A549): 7.30
SMILES: Cc1ccc2c(c1)C(c1ccccc1)c1c(c3ccccc3oc1=O)N2 (stereo unspecified)

MIC (Staphylococcus aureus [16]): 100 µM (≈ 20 µg/mL)
SMILES: Cc1cccc2c1oc(=O)c1cn[nH]c12
zone of inhibition at 20000 µg/mL (Staphylococcus aureus [4]): 14 mm | zone of inhibition at 20000 µg/mL (Candida albicans [15]): 14 mm | zone of inhibition at 20000 µg/mL (Staphylococcus simulans): 14 mm
